Marks after values point to notes of the source that are not given here. Blank lines part the entries; values can stand above or below the molecule they belong to.
System: male rats
Assay: 28-day repeated dose study, plasma metabolite profiling (GC-MS, LC-MS), male rats
Type: in vivo, rat
Source text: Drinking water was also offered ad libitum.

18-Hydroxy-11-deoxycorticosterone, plasma, treatment ratio versus control (day 7): 0.49*
Alanine, plasma, treatment ratio versus control (day 7): 0.76*
Arachidonic acid (C20:cis[5,8,11,14]4), plasma, treatment ratio versus control (day 7): 0.76*
Coenzyme Q9, plasma, treatment ratio versus control (day 7): 0.72*
Creatinine, plasma, treatment ratio versus control (day 7): 1.23*
DAG (C18:1, C18:2), plasma, treatment ratio versus control (day 7): 0.81
Fructose-6-phosphate, plasma, treatment ratio versus control (day 7): 0.76
Galactose, lipid fraction, plasma, treatment ratio versus control (day 7): 0.81*
Glucosamine, plasma, treatment ratio versus control (day 7): 1
Glucose, plasma, treatment ratio versus control (day 7): 0.86*
Glycerol, polar fraction, plasma, treatment ratio versus control (day 7): 0.75*
Heneicosanoic acid (C21:0), plasma, treatment ratio versus control (day 7): 0.92
Lactate, plasma, treatment ratio versus control (day 7): 0.68
Linolenic acid (C18:cis[9,12,15]3), plasma, treatment ratio versus control (day 7): 0.59*
Lysine, plasma, treatment ratio versus control (day 7): 0.81*
Malate, plasma, treatment ratio versus control (day 7): 0.65*
Oleic acid (C18:cis[9]1), plasma, treatment ratio versus control (day 7): 0.85*
Palmitoleic acid (C16:cis[9]1), plasma, treatment ratio versus control (day 7): 0.81
Phenylalanine, plasma, treatment ratio versus control (day 7): 0.96
Phosphate (inorganic and organic phosphates), plasma, treatment ratio versus control (day 7): 0.9*
Pyruvate, plasma, treatment ratio versus control (day 7): 0.84
Spermidine, plasma, treatment ratio versus control (day 7): 0.77*
TAG (C16:0,C16:1), plasma, treatment ratio versus control (day 7): 0.67*
Uracil, plasma, treatment ratio versus control (day 7): 0.67*
myo-Inositol, plasma, treatment ratio versus control (day 7): 0.85*
trans-4-Hydroxyproline, plasma, treatment ratio versus control (day 7): 0.73*
18-Hydroxy-11-deoxycorticosterone, plasma, treatment ratio versus control (day 14): 0.59*
Alanine, plasma, treatment ratio versus control (day 14): 0.84*
Arachidonic acid (C20:cis[5,8,11,14]4), plasma, treatment ratio versus control (day 14): 0.83*
Coenzyme Q9, plasma, treatment ratio versus control (day 14): 0.67*
Creatinine, plasma, treatment ratio versus control (day 14): 1.45*
DAG (C18:1, C18:2), plasma, treatment ratio versus control (day 14): 0.74*
Fructose-6-phosphate, plasma, treatment ratio versus control (day 14): 1.08
Galactose, lipid fraction, plasma, treatment ratio versus control (day 14): 1
Glucosamine, plasma, treatment ratio versus control (day 14): 1.15
Glucose, plasma, treatment ratio versus control (day 14): 0.88*
Glycerol, polar fraction, plasma, treatment ratio versus control (day 14): 0.84*
Heneicosanoic acid (C21:0), plasma, treatment ratio versus control (day 14): 0.87*
Lactate, plasma, treatment ratio versus control (day 14): 0.69*
Linolenic acid (C18:cis[9,12,15]3), plasma, treatment ratio versus control (day 14): 0.57*
Lysine, plasma, treatment ratio versus control (day 14): 0.97
Malate, plasma, treatment ratio versus control (day 14): 0.8*
Oleic acid (C18:cis[9]1), plasma, treatment ratio versus control (day 14): 0.82*
Palmitoleic acid (C16:cis[9]1), plasma, treatment ratio versus control (day 14): 0.77*
Phenylalanine, plasma, treatment ratio versus control (day 14): 0.96*
Phosphate (inorganic and organic phosphates), plasma, treatment ratio versus control (day 14): 0.89*
Pyruvate, plasma, treatment ratio versus control (day 14): 0.69*
Spermidine, plasma, treatment ratio versus control (day 14): 0.69*
TAG (C16:0,C16:1), plasma, treatment ratio versus control (day 14): 0.38*
Uracil, plasma, treatment ratio versus control (day 14): 0.67*
myo-Inositol, plasma, treatment ratio versus control (day 14): 0.97
trans-4-Hydroxyproline, plasma, treatment ratio versus control (day 14): 0.75*
18-Hydroxy-11-deoxycorticosterone, plasma, treatment ratio versus control (day 28): 0.58
Alanine, plasma, treatment ratio versus control (day 28): 0.92*
Arachidonic acid (C20:cis[5,8,11,14]4), plasma, treatment ratio versus control (day 28): 0.97
Coenzyme Q9, plasma, treatment ratio versus control (day 28): 0.73*
Creatinine, plasma, treatment ratio versus control (day 28): 1.65*
DAG (C18:1, C18:2), plasma, treatment ratio versus control (day 28): 0.67
Fructose-6-phosphate, plasma, treatment ratio versus control (day 28): 0.83*
Galactose, lipid fraction, plasma, treatment ratio versus control (day 28): 1.15
Glucosamine, plasma, treatment ratio versus control (day 28): 0.84
Glucose, plasma, treatment ratio versus control (day 28): 0.87*
Glycerol, polar fraction, plasma, treatment ratio versus control (day 28): 0.79*
Heneicosanoic acid (C21:0), plasma, treatment ratio versus control (day 28): 1.08
Lactate, plasma, treatment ratio versus control (day 28): 0.77*
Linolenic acid (C18:cis[9,12,15]3), plasma, treatment ratio versus control (day 28): 0.53*
Lysine, plasma, treatment ratio versus control (day 28): 0.88*
Malate, plasma, treatment ratio versus control (day 28): 0.69*
Oleic acid (C18:cis[9]1), plasma, treatment ratio versus control (day 28): 0.8*
Palmitoleic acid (C16:cis[9]1), plasma, treatment ratio versus control (day 28): 0.88*
Phenylalanine, plasma, treatment ratio versus control (day 28): 0.93*
Phosphate (inorganic and organic phosphates), plasma, treatment ratio versus control (day 28): 1.02
Pyruvate, plasma, treatment ratio versus control (day 28): 0.69*
Spermidine, plasma, treatment ratio versus control (day 28): 0.79*
TAG (C16:0,C16:1), plasma, treatment ratio versus control (day 28): 0.71*
Uracil, plasma, treatment ratio versus control (day 28): 0.77*
myo-Inositol, plasma, treatment ratio versus control (day 28): 0.91*
trans-4-Hydroxyproline, plasma, treatment ratio versus control (day 28): 0.81*
SMILES: Cc1ncc[nH]1 [2-Methylimidazole]

3-Hydroxybutyrate, plasma, treatment ratio versus control (day 7): 0.71
3-O-Methylsphingosine (d18:1), plasma, treatment ratio versus control (day 7): 0.06
Campesterol, plasma, treatment ratio versus control (day 7): 0.08
Cholesterol, plasma, treatment ratio versus control (day 7): 0.05
Coenzyme Q9, plasma, treatment ratio versus control (day 7): 0.09*
Coenzyme Q10, plasma, treatment ratio versus control (day 7): 0.09*
Glutamine, plasma, treatment ratio versus control (day 7): 0.84
Histidine, plasma, treatment ratio versus control (day 7): 2.33*
Lysine, plasma, treatment ratio versus control (day 7): 1.47
Palmitoleic acid (C16:cis[9]1), plasma, treatment ratio versus control (day 7): 0.2
Stearic acid (C18:0), plasma, treatment ratio versus control (day 7): 0.18
Threonine, plasma, treatment ratio versus control (day 7): 1.44*
erythro-Sphingosine, plasma, treatment ratio versus control (day 7): 0.03
3-Hydroxybutyrate, plasma, treatment ratio versus control (day 14): 0.23*
3-O-Methylsphingosine (d18:1), plasma, treatment ratio versus control (day 14): 0.35*
Campesterol, plasma, treatment ratio versus control (day 14): 0.6*
Cholesterol, plasma, treatment ratio versus control (day 14): 0.57*
Coenzyme Q9, plasma, treatment ratio versus control (day 14): 0.86
Coenzyme Q10, plasma, treatment ratio versus control (day 14): 0.36*
Glutamine, plasma, treatment ratio versus control (day 14): 0.91
Histidine, plasma, treatment ratio versus control (day 14): 2.16*
Lignoceric acid (C24:0), plasma, treatment ratio versus control (day 14): 0.47*
Lysine, plasma, treatment ratio versus control (day 14): 1.4*
Palmitoleic acid (C16:cis[9]1), plasma, treatment ratio versus control (day 14): 1.28
Stearic acid (C18:0), plasma, treatment ratio versus control (day 14): 0.67*
Threonine, plasma, treatment ratio versus control (day 14): 1.85*
erythro-Sphingosine, plasma, treatment ratio versus control (day 14): 0.45*
SMILES: C#CC1(O)CCC2C3CCc4cc(O)ccc4C3CCC21C (stereo not drawn) [17-alpha-Ethynylestradiol, 17-ethynyl-13-methyl-7,8,9,11,12,13,14,15,16,17-decahydro-6H-cyclopenta[a]phenanthrene-3,17-diol]

Source: US20140342379A1, “Means and Methods for Assessing Gonadal Toxicity” (BASF SE, priority 2011, published 2014)
